# Where a name gives a salt, the structure may show the parent alone.
# Biological target: T1, human A3AR (Homo sapiens, UniProt P0DMS8)
# T1 construct: expressed in transfected cells
# T1 sequence (P0DMS8 1-318): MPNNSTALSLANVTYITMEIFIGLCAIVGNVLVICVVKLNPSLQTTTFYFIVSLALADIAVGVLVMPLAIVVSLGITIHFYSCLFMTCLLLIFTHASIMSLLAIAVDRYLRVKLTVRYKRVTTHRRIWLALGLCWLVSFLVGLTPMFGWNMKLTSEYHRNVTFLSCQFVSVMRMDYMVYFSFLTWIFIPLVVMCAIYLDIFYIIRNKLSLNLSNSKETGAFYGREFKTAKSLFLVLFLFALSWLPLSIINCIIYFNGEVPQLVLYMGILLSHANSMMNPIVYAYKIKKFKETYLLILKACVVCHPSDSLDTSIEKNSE
# Assay: LOPAC library primary screen: single concentration (10 μM) inhibition of 25 nM CA200645 binding, PHERAstar FS
# Details: not given
Compound,% 25 nM CA200645 binding [%],% Total CA200645 binding [%],hit in LOPAC primary screen (inhibited the binding of CA200645 by >40%)
O=C(O)C(O)C(O)C(=O)O.c1cnc2cc3c(cc2n1)[C@@H]1CNC[C@H]3C1 [Varenicline tartrate],90.5 ± 2.6,,
CC1=NN=C(c2ccc(N)cc2)c2cc3c(cc2C1)OCO3.Cl [GYKI 52466 hydrochloride],78.2 ± 10.4,,
CC#CCOC(=O)c1c(C)nc2sc3c(c2c1N)CCC(O)C3 (centres unmarked) [SB 205384],95.1 ± 6.2,,
Cl.NCCNS(=O)(=O)c1cccc2c(Cl)cccc12 [A3 hydrochloride],95.5 ± 8.6,,
COc1cc2c(CCNC(C)=O)c[nH]c2cc1Cl [6-Chloromelatonin],92.8 ± 24.3,,
CS(=O)(=O)Nc1ccc([N+](=O)[O-])cc1Oc1ccccc1 [Nimesulide],114.0 ± 22.1,,
O=c1n(CCCN2CCN(c3cccc(Cl)c3)CC2)nc2ccccn12 [Trazodone hydrochloride],104.7 ± 11.3,,
CC(C)(C)c1onc(OCP(=O)(O)O)c1CC(N)C(=O)O (centres unmarked) [ATPO],98.4 ± 3.3,,
CN1CCc2cc(Cl)c(O)cc2[C@@H](c2ccccc2)C1.Cl [R(+)-SCH-23390 hydrochloride],96.2 ± 12.3,,
CC(=O)/C=C1\C(=O)N(C)c2ccccc21 [Supercinnamaldehyde],98.9 ± 0.6,,
"LY-367,265",64.8 ± 25.8,,
C[C@H](O)[C@H](O)[C@H]1CNc2nc(N)[nH]c(=O)c2N1.Cl,101.6 ± 17.7,,
CN1CCC(=C2c3ccccc3C=Cc3ccccc32)CC1 [Cyproheptadine hydrochloride],96.0 ± 5.5,,
CC[N+](CC)(CC)CCOc1cccc(OCC[N+](CC)(CC)CC)c1OCC[N+](CC)(CC)CC [Gallamine triethiodide],78.3 ± 38.7,,
CCCN(CCC)C1Cc2cc(OC)c(OC)cc2C1.O=C(O)/C=C\C(=O)O [U-99194A maleate],101.3 ± 8.9,,
CCN(CC)C(C)CN1c2ccccc2Sc2ccccc21 (centres unmarked) [Ethopropazine hydrochloride],108.3 ± 15.2,,
CCCNC(=O)NS(=O)(=O)c1ccc(Cl)cc1 [Chlorpropamide],97.6 ± 7.8,,
Cl.c1ccc([C@H]2CN3CCSC3=N2)cc1 [(-)-Tetramisole hydrochloride],112.9 ± 6.8,,
COc1cc2nc(N3CCN(C(=O)c4ccco4)CC3)nc(N)c2cc1OC [Prazosin hydrochloride],109.3 ± 23.7,,
CCCCCCN(CCCCCC)C(=O)Cc1c(-c2ccc(F)cc2)[nH]c2ccccc12,88.5 ± 10.2,,

Compound,% 25 nM CA200645 binding [%],% Total CA200645 binding [%],hit in LOPAC primary screen (inhibited the binding of CA200645 by >40%)
"Nc1nc(Cl)nc2c1ncn2[C@@H]1O[C@H](CO)[C@@H](O)[C@H]1O [2-CADO, reference compound]",,51.0 ± 6.7,
C1COC(NC(C2CC2)C2CC2)=N1 [Rilmenidine hemifumarate],100.9 ± 6.4,,
CC(C)C[C@H]1C(=O)N2CCC[C@H]2[C@]2(O)O[C@](NC(=O)[C@@H]3C=C4c5cccc6[nH]c(Br)c(c56)C[C@H]4N(C)C3)(C(C)C)C(=O)N12.CS(=O)(=O)O [(+)-Bromocriptine methanesulfonate],60.6 ± 9.2,,
O=c1[nH]c(=S)[nH]c(-c2ccccc2)c1Cc1c(O)ccc2ccccc12 [Cambinol],94.8 ± 8.3,,
N[C@@H]1C[C@H]1c1ccccc1 [Tranylcypromine hydrochloride],100.1 ± 11.2,,
S=C([S-])OC1CC2CC1C1CCCC21.[K+] [D-609 potassium],95.5 ± 4.1,,
COc1ccc2c(c1)c(CC(=O)O)c(C)n2C(=O)c1ccc(Cl)cc1 [Indomethacin],72.9 ± 18.3,,
C[C@]12CC[C@@H]3c4ccc(O)cc4C[C@@H](CCCCCCCCC[S+]([O-])CCCC(F)(F)C(F)(F)F)[C@H]3[C@@H]1CC[C@@H]2O (some centres unmarked) [Fulvestrant],100.4 ± 12.1,,
Nc1nc2c(ncn2[C@@H]2O[C@H](CO)[C@@H](O)[C@@H]2O)c(=O)[nH]1.O [Ara-G hydrate],96.8 ± 6.9,,
CCCN1CCC[C@@H]2Cc3nc(N)ncc3C[C@H]21.Cl.Cl [Quinelorane dihydrochloride],105.7 ± 9.9,,
CC(N)Cc1c[nH]c2ccc(OCc3cccs3)cc12 (centres unmarked) [BW 723C86],102.2 ± 11.4,,
C[C@H](N[C@@H](CCc1ccccc1)C(=O)O)C(=O)N1CCC[C@H]1C(=O)O.O.O [Enalaprilat dihydrate],95.6 ± 2.1,,
CN1CCC(=C2c3ccccc3CC(=O)c3sccc32)CC1 [Ketotifen fumarate],93.8 ± 4.0,,
CC(CN1c2ccccc2Sc2ccccc21)N(C)C (centres unmarked) [Promethazine hydrochloride],96.7 ± 11.4,,
Br.CCCN(CCC)[C@@H]1CCc2cccc(O)c2C1 [R-(+)-8-Hydroxy-DPAT hydrobromide],83.0 ± 17.5,,
CN1CCC[C@@H]1Cc1c[nH]c2ccc(CCS(=O)(=O)c3ccccc3)cc12 [Eletriptan hydrobromide],96.9 ± 5.3,,
CCN(CC)CCNC(=O)c1ccc(NS(C)(=O)=O)cc1.Cl.O [Sematilide monohydrochloride monohydrate],97.5 ± 2.4,,
CCC1(c2ccccc2)C(=O)NCNC1=O [Primidone],96.1 ± 4.9,,
OCCN1CCN(CCCN2c3ccccc3Sc3ccc(Cl)cc32)CC1 [Perphenazine],88.8 ± 23.6,,
CN(C)C(=O)Oc1cccc([N+](C)(C)C)c1 [Neostigmine bromide],100.2 ± 23.4,,

Compound,% 25 nM CA200645 binding [%],% Total CA200645 binding [%],hit in LOPAC primary screen (inhibited the binding of CA200645 by >40%)
"CCCn1c(=O)c2[nH]c(-c3ccc(S(=O)(=O)O)cc3)nc2n(CCC)c1=O [1,3-dipropyl-8-p-sulfophenylxanthine, reference compound]",42.3 ± 4.8,42.3 ± 4.8,identified
Cc1nc(N=Nc2ccc(S(=O)(=O)O)cc2S(=O)(=O)O)c(COP(=O)(O)O)c(C=O)c1O [PPADS],106.1 ± 11.3,,
Cc1cccc(C)c1OCC(C)N.Cl (centres unmarked) [Mexiletene hydrochloride],99.4 ± 6.9,,
C[C@](N)(Cc1ccc(O)c(O)c1)C(=O)O [L-alpha-Methyl DOPA],92.6 ± 21.6,,
COC(=O)[C@@H](N)Cc1ccc(O)c(O)c1.Cl,98.6 ± 13.3,,
"COc1ccccc1N1CCN(CCCNc2c(C)c(=O)n(C)c(=O)n2C)CC1 [Urapidil, 5-Methyl-]",83.5 ± 22.8,,
CN1CCc2cccc(Cl)c2CC1 [SKF 86466],103.0 ± 12.5,,
CCCN(CCc1ccccc1)C1CCc2c(O)cccc2C1.Cl (racemic) [(±)-PPHT hydrochloride],101.7 ± 5.1,,
"O=C(O)c1cc(=O)c2c(Cl)cc(Cl)cc2[nH]1 [5,7-Dichlorokynurenic acid]",100.9 ± 8.8,,
COc1ccc(Cc2nccc3cc(OC)c(OC)cc23)cc1OC [Papaverine hydrochloride],86.6 ± 22.0,,
CC(C)NCC(O)COc1cccc2[nH]ccc12 (centres unmarked) [Pindolol],84.7 ± 11.8,,
Cl.Cn1ccc2cc(NC(=O)Nc3cccnc3)ccc21 [SB 200646 hydrochloride],81.7 ± 19.9,,
O=C1c2c(O)ccc(O)c2C(=O)c2c(NCCNCCO)ccc(NCCNCCO)c21 [Mitoxantrone],88.5 ± 12.7,,
C[C@@H]1O[C@@H](O[C@H]2C[C@@H](O)[C@]3(CO)[C@H]4[C@H](O)C[C@]5(C)[C@@H](C6=CC(=O)OC6)CC[C@]5(O)[C@@H]4CC[C@]3(O)C2)[C@H](O)[C@H](O)[C@H]1O [Ouabain],102.0 ± 3.5,,
O=C(O)CP(=O)(O)O [Phosphonoacetic acid],103.4 ± 12.3,,
OC(CCN1CCCCC1)(c1ccccc1)C1CCCCC1 (centres unmarked) [Trihexyphenidyl hydrochloride],99.4 ± 5.7,,
NCC(CP(=O)(O)O)c1ccc(Cl)cc1 (centres unmarked) [Phaclofen],107.2 ± 18.9,,
CCCCS(=N)(=O)CC[C@H](N)C(=O)O (stereo partly drawn) [L-Buthionine-sulfoximine],98.1 ± 5.3,,

# Same assay, conditions: % of 25 nM CA200645 binding in the presence of 10 μM compound, LOPAC full screen, A3AR CHO cells
row,Compound,% Total CA200645 binding [%]
1,"Nc1ccc(CCNc2ncnc3c2ncn3[C@@H]2O[C@H](CO)[C@@H](O)[C@H]2O)cc1 [APNEA, reference compound]",41.0 ± 7.2

# Same assay, conditions: % of control wells (1% DMSO and 25 nM CA200645); compounds at 10 µM; […]; mean ± SD, three experiments in duplicate
row,Compound,% 25 nM CA200645 binding [%]
1,CN1CCN(C2Cc3ccccc3Sc3ccc(Cl)cc32)CC1.O=C(O)/C=C\C(=O)O (racemic) [(±)-Octoclothepin maleate],83.2 ± 25.2
2,CCOC(=O)C(C)(C)Oc1ccc(Cl)cc1 [Clofibrate],81.3 ± 24.9

# Same assay, conditions: % of control wells (1% DMSO and 25 nM CA200645); compounds at 10 µM; whole live cells expressing the A3AR; mean ± SD, three experiments in duplicate
row,Compound,% 25 nM CA200645 binding [%]
1,Cc1nc2sccn2c(=O)c1CCN1CCC(=C(c2ccc(F)cc2)c2ccc(F)cc2)CC1 [Ritanserin],79.4 ± 12.5

# Same assay, conditions: compounds tested at 10 µM; % of control wells (1% DMSO and 25 nM CA200645); whole live cells expressing the A3AR; mean ± SD, three experiments in duplicate
row,Compound,% 25 nM CA200645 binding [%]
1,CCCCCCCCCCCCCCSCC(=O)O [Tetradecylthioacetic acid],101.3 ± 12.1
2,COc1cccc2c1[C@@H]1CN(CCCCn3c(=O)[nH]c4c(sc5ncc(-c6ccccc6)nc54)c3=O)C[C@@H]1CO2 [Fiduxosin hydrochloride],92.6 ± 13.4
3,CSc1ccc2c(c1)C(N1CCN(C)CC1)Cc1ccccc1S2 (centres unmarked) [Methiothepin mesylate],112.2 ± 9.4
4,c1ccc(C2CC2)c(OCC2=NCCN2)c1 [Cirazoline hydrochloride],105.5 ± 7.7
